Columns and labels:
Type in all cases: biochemical
PI3Kα = PI3Kα (Homo sapiens, UniProt P42336); experiment: PI3K-alpha fluorescence polarization assay; conditions: read-out: PI3Kα Median IC50
PI3Kγ = PI3Kγ (Homo sapiens, UniProt P48736); experiment: PI3K-gamma fluorescence polarization assay; conditions: read-out: PI3Kγ Median IC50
mTOR = mTOR (Homo sapiens, UniProt P42345); experiment: mTOR enzyme assay (DELFIA format, His6-S6K substrate); conditions: read-out: mTOR Kinase Median IC50

PI3Kγ, sequence (P48736 whole entry, species assumed): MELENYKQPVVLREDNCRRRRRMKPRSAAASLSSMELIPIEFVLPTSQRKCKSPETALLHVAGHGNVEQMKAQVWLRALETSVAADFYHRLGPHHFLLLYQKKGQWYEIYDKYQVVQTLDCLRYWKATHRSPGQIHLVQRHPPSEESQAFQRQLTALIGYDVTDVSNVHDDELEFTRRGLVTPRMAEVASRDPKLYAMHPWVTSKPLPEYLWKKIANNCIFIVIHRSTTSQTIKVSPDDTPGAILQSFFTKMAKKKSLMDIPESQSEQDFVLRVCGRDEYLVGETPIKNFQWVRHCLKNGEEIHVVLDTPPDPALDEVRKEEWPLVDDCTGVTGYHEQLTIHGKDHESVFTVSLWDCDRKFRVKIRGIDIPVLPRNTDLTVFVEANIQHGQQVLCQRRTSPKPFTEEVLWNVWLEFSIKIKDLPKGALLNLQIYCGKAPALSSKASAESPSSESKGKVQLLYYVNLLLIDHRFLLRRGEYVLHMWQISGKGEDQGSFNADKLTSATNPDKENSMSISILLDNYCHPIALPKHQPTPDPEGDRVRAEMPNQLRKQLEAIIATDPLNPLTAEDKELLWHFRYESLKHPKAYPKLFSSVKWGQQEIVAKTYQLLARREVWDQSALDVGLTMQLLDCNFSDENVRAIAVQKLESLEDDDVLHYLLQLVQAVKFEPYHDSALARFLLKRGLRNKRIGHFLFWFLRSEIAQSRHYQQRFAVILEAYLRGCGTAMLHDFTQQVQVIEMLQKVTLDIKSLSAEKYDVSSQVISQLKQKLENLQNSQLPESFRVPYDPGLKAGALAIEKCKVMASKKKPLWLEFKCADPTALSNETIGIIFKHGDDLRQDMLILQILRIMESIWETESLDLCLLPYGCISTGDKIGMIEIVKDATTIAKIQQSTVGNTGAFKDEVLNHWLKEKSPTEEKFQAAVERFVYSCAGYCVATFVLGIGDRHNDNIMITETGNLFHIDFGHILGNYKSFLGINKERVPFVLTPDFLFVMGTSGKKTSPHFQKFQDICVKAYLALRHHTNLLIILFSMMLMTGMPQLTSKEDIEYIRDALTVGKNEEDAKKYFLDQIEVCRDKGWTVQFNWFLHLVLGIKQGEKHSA
PI3Kα, sequence (P42336 whole entry, species assumed): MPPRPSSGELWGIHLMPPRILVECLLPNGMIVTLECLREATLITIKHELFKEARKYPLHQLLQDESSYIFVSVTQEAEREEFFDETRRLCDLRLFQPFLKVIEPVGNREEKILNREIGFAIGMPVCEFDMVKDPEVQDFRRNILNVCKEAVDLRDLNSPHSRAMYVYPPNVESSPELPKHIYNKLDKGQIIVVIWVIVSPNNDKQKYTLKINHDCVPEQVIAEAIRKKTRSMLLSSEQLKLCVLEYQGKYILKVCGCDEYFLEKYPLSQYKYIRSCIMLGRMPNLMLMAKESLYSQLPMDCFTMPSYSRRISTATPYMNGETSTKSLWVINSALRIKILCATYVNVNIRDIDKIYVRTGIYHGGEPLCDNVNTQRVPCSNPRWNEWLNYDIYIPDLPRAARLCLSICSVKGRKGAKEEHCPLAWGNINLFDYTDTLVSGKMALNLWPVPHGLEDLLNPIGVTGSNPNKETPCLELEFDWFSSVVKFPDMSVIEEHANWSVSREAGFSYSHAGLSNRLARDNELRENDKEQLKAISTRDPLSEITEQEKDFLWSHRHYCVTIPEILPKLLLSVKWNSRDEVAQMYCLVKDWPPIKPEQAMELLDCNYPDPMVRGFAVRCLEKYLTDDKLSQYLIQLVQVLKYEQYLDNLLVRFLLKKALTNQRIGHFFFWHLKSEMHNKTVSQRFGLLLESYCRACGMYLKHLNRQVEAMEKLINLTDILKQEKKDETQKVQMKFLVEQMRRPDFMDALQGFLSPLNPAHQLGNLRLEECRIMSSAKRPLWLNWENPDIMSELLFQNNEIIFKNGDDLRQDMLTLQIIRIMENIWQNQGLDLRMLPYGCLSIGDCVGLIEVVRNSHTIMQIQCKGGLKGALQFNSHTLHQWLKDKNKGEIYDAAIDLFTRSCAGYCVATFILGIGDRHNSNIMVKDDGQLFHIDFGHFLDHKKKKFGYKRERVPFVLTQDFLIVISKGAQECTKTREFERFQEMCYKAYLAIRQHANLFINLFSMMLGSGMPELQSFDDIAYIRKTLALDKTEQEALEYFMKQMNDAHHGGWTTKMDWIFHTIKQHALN
PI3Kα, sequence (P27986 whole entry partner, species assumed): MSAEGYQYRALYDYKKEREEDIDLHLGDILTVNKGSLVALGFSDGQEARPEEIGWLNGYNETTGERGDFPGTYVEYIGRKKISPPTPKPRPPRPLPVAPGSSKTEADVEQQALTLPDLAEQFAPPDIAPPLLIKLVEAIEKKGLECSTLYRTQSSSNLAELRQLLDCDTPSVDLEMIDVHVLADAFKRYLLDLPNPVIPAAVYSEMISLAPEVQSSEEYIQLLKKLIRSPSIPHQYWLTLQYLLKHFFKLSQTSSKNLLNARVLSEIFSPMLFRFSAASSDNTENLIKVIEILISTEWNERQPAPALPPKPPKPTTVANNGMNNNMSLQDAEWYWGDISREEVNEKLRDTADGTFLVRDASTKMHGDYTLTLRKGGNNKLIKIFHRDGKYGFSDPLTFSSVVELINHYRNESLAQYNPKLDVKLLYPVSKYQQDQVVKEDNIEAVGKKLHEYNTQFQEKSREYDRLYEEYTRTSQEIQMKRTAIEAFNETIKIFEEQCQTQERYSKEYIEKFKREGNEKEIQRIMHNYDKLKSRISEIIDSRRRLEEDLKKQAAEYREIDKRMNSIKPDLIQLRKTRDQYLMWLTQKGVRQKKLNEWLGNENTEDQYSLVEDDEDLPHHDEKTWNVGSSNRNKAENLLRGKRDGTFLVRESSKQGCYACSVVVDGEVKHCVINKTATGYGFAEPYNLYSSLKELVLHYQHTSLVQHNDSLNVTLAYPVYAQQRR

| IC50 (PI3Kα) | IC50 (PI3Kγ) | IC50 (mTOR) | Compound |
| --- | --- | --- | --- |
| 0.019 µM | 0.106 µM | 0.0027 µM | Cn1cc(/C=C2\Oc3cc(O)cc(O)c3C2=O)c2c(-c3cccc(NS(C)(=O)=O)c3)ccnc21 [Compound 18, N-(3-{3-[(Z)-(4,6-dihydroxy-3-oxo-1-benzofuran-2(3H)-ylidene)methyl]-1-methyl-1H-pyrrolo[2,3-b]pyridin-4-yl}phenyl)methanesulfonamide] |
| 0.649 µM | 3.64 µM | 0.13 µM | C[C@H]1COCCN1c1ccnc2c1c(/C=C1\Oc3ccc(NC(=O)Nc4cccnc4)cc3C1=O)cn2C [Compound 238, 1-[(2Z)-2-({1-methyl-4-[(3S)-3-methylmorpholin-4-yl]-1H-pyrrolo[2,3-b]pyridin-3-yl}methylidene)-3-oxo-2,3-dihydro-1-benzofuran-5-yl]-3-pyridin-3-ylurea] |
| 0.161 µM | 0.066 µM | 0.0036 µM | Cn1cc(/C=C2\Oc3cc(O)cc(O)c3C2=O)c2c(-c3ccc(Oc4ccccc4)cc3)ccnc21 [Compound 87, (2Z)-4,6-dihydroxy-2-{[1-methyl-4-(4-phenoxyphenyl)-1H-pyrrolo[2,3-b]pyridin-3-yl]methylene}-1-benzofuran-3(2H)-one] |
| 1.32 µM | > 10 µM | 0.0805 µM | Cn1cc(/C=C2\Oc3cccc(O)c3C2=O)c2c(-c3ccc(N4CCCC4)cc3)ccnc21 [Compound 143, (2Z)-4-hydroxy-2-{[1-methyl-4-(4-pyrrolidin-1-ylphenyl)-1H-pyrrolo[2,3-b]pyridin-3-yl]methylidene}-1-benzofuran-3(2H)-one] |
| 0.743 µM | 0.45 µM | 0.023 µM | Cn1cc(/C=C2\Oc3ccc(NC(=O)Nc4ccc(CN5CCCCC5)cc4)cc3C2=O)c2c(N3CC4CCC(C3)O4)ccnc21 [Compound 278, 1-[(2Z)-2-{[1-methyl-4-(8-oxa-3-azabicyclo[3.2.1]oct-3-yl)-1H-pyrrolo[2,3-b]pyridin-3-yl]methylidene}-3-oxo-2,3-dihydro-1-benzofuran-5-yl]-3-[4-(piperidin-1-ylmethyl)phenyl]urea] |
| 0.007 µM | 0.036 µM | 0.0003 µM | Cn1cc(/C=C2\Oc3cc(O)cc(O)c3C2=O)c2c(-c3ccc(NS(C)(=O)=O)cc3)ccnc21 [Compound 36, N-(4-{3-[(Z)-(4,6-dihydroxy-3-oxo-1-benzofuran-2(3H)-ylidene)methyl]-1-methyl-1H-pyrrolo[2,3-b]pyridin-4-yl}phenyl)methanesulfonamide] |
| 0.252 µM | 0.343 µM | 0.0155 µM | CNC(=O)Nc1ccc2c(c1)C(=O)/C(=C/c1cn(C)c3nccc(-c4ccc(C(=O)N5CCN(CCO)CC5)cc4)c13)O2 [Compound 166, 1-[(2Z)-2-{[4-(4-{[4-(2-hydroxyethyl)piperazin-1-yl]carbonyl}phenyl)-1-methyl-1H-pyrrolo[2,3-b]pyridin-3-yl]methylidene}-3-oxo-2,3-dihydro-1-benzofuran-5-yl]-3-methylurea] |
| 0.007 µM | 0.057 µM | 0.0003 µM | Cn1cc(/C=C2\Oc3cc(O)cc(O)c3C2=O)c2c(-c3ccc(S(N)(=O)=O)cc3)ccnc21 [Compound 17, 4-{3-[(Z)-(4,6-dihydroxy-3-oxo-1-benzofuran-2(3H)-ylidene)methyl]-1-methyl-1H-pyrrolo[2,3-b]pyridin-4-yl}benzenesulfonamide] |
| 0.845 µM | 2.56 µM | 0.072 µM | CC(C)NC(=O)Nc1ccc2c(c1)C(=O)/C(=C/c1cn(C)c3nccc(N4CC5CCC(C4)O5)c13)O2 [Compound 235, 1-(1-methylethyl)-3-[(2Z)-2-{[1-methyl-4-(8-oxa-3-azabicyclo[3.2.1]oct-3-yl)-1H-pyrrolo[2,3-b]pyridin-3-yl]methylidene}-3-oxo-2,3-dihydro-1-benzofuran-5-yl]urea] |
| 0.308 µM | 3.38 µM | 0.115 µM | CCN(CC)C(=O)C1CCN(c2ccnc3c2c(/C=C2\Oc4ccc(NC(=O)Nc5cccnc5)cc4C2=O)cn3C)CC1 [Compound 244, N,N-diethyl-1-{1-methyl-3-[(Z)-{3-oxo-5-[(pyridin-3-ylcarbamoyl)amino]-1-benzofuran-2(3H)-ylidene}methyl]-1H-pyrrolo[2,3-b]pyridin-4-yl}piperidine-4-carboxamide] |
| 1.45 µM | 4.15 µM | 0.0705 µM | CN(C)CCOc1cccc2c1C(=O)/C(=C/c1cn(C)c3nccc(-c4ccccc4)c13)O2 [Compound 159, (2Z)-4-[2-(dimethylamino)ethoxy]-2-[(1-methyl-4-phenyl-1H-pyrrolo[2,3-b]pyridin-3-yl)methylidene]-1-benzofuran-3(2H)-one] |
| 2.55 µM | 4.68 µM | 0.059 µM | CN(C)C(=O)C1CCN(c2ccnc3c2c(/C=C2\Oc4ccc(NC(=O)NC5CC5)cc4C2=O)cn3C)CC1 [Compound 291, 1-{3-[(Z)-{5-[(cyclopropylcarbamoyl)amino]-3-oxo-1-benzofuran-2(3H)-ylidene}methyl]-1-methyl-1H-pyrrolo[2,3-b]pyridin-4-yl}-N,N-dimethylpiperidine-4-carboxamide] |
| 0.233 µM | 1.58 µM | > 4 µM | COc1ccc2[nH]cc(/C=C3\Oc4cc(O)cc(O)c4C3=O)c2n1 [Compound 26, (2Z)-4,6-dihydroxy-2-[(5-methoxy-1H-pyrrolo[3,2-b]pyridin-3-yl)methylene]-1-benzofuran-3(2H)-one] |
| 0.079 µM | 0.581 µM | 0.0019 µM | CN1CCN(c2ccc(-c3ccnc4c3c(/C=C3\Oc5cc(O)cc(O)c5C3=O)cn4C)cc2)CC1 [Compound 56, (2Z)-4,6-dihydroxy-2-({1-methyl-4-[4-(4-methylpiperazin-1-yl)phenyl]-1H-pyrrolo[2,3-b]pyridin-3-yl}methylene)-1-benzofuran-3(2H)-one] |
| 0.167 µM | 0.219 µM | 0.0905 µM | CCN(CCO)C(=O)c1ccc(-c2ccnc3c2c(/C=C2\Oc4cccc(O)c4C2=O)cn3C)cc1 [Compound 243, N-ethyl-N-(2-hydroxyethyl)-4-{3-[(Z)-(4-hydroxy-3-oxo-1-benzofuran-2(3H)-ylidene)methyl]-1-methyl-1H-pyrrolo[2,3-b]pyridin-4-yl}benzamide] |
| 0.048 µM | 0.062 µM | 0.0017 µM | COCCNC(=O)c1ccc(-c2ccnc3c2c(/C=C2\Oc4cccc(O)c4C2=O)cn3C)cc1 [Compound 149, 4-{3-[(Z)-(4-hydroxy-3-oxo-1-benzofuran-2(3H)-ylidene)methyl]-1-methyl-1H-pyrrolo[2,3-b]pyridin-4-yl}-N-(2-methoxyethyl)benzamide] |
| 0.024 µM | 0.247 µM | 0.005 µM | Cn1cc(/C=C2\Oc3cc(O)cc(O)c3C2=O)c2c(-c3ccc(OCCn4ccnc4)cc3)ccnc21 [Compound 16, (2Z)-4,6-dihydroxy-2-[(4-{4-[2-(1H-imidazol-1-yl)ethoxy]phenyl}-1-methyl-1H-pyrrolo[2,3-b]pyridin-3-yl)methylene]-1-benzofuran-3(2H)-one] |
| > 10 µM | 2.18 µM | 0.011 µM | CN(C)C1CCN(C(=O)C2CCN(c3ccnc4c3c(C=C3Oc5ccc(NC(=O)Nc6cccnc6)cc5C3=O)cn4C)CC2)C1 (stereo not drawn) [Compound 210, 1-(2-{[4-(4-{[3-(dimethylamino)pyrrolidin-1-yl]carbonyl}piperidin-1-yl)-1-methyl-1H-pyrrolo[2,3-b]pyridin-3-yl]methylidene}-3-oxo-2,3-dihydro-1-benzofuran-5-yl)-3-pyridin-3-ylurea] |
| 0.122 µM | 0.256 µM | 0.0049 µM | Cn1cc(/C=C2\Oc3cccc(O)c3C2=O)c2c(-c3ccc(F)c(C(=O)Nc4ccccc4)c3)ccnc21 [Compound 137, 2-fluoro-5-{3-[(Z)-(4-hydroxy-3-oxo-1-benzofuran-2(3H)-ylidene)methyl]-1-methyl-1H-pyrrolo[2,3-b]pyridin-4-yl}-N-phenylbenzamide] |
| 0.02 µM | 0.026 µM | 0.0006 µM | COC1CCN(C(=O)c2ccc(-c3ccnc4c3c(/C=C3\Oc5cccc(O)c5C3=O)cn4C)cc2)C1 (stereo not drawn) [Compound 249, (2Z)-4-hydroxy-2-[(4-{4-[(3-methoxypyrrolidin-1-yl)carbonyl]phenyl}-1-methyl-1H-pyrrolo[2,3-b]pyridin-3-yl)methylene]-1-benzofuran-3(2H)-one] |
| 0.367 µM | 0.479 µM | 0.755 µM | Cn1cc(/C=C2\Oc3ccc(NC(=O)Nc4cccnc4)cc3C2=O)c2c(-c3ccccc3)ccnc21 [Compound 183, 1-{(2Z)-2-[(1-methyl-4-phenyl-1H-pyrrolo[2,3-b]pyridin-3-yl)methylidene]-3-oxo-2,3-dihydro-1-benzofuran-5-yl}-3-pyridin-3-ylurea] |
| 0.011 µM | 0.1 µM | 0.0002 µM | Cn1cc(/C=C2\Oc3cc(O)cc(O)c3C2=O)c2c(-c3ccc(F)c(C(=O)Nc4ccccc4)c3)ccnc21 [Compound 98, 5-{3-[(Z)-(4,6-dihydroxy-3-oxo-1-benzofuran-2(3H)-ylidene)methyl]-1-methyl-1H-pyrrolo[2,3-b]pyridin-4-yl}-2-fluoro-N-phenylbenzamide] |
| 5.12 µM | 5.19 µM | 2.5 µM | Cn1c(-c2ccccc2)c(/C=C2\Oc3cc(O)ccc3C2=O)c2cccnc21 [Compound 28, (2Z)-6-hydroxy-2-[(1-methyl-2-phenyl-1H-pyrrolo[2,3-b]pyridin-3-yl)methylene]-1-benzofuran-3(2H)-one] |

| Compound | IC50 (PI3Kα) | IC50 (PI3Kγ) | IC50 (mTOR) |
| --- | --- | --- | --- |
| (2Z)-2-({4-[4-(5,6-dihydro-4H-1,3-oxazin-2-yl)phenyl]-1-methyl-1H-pyrrolo[2,3- b]pyridin-3-yl}methylidene)-4-hydroxy-1-benzofuran-3(2H)-one [Compound 22] | 0.109 µM | 0.276 µM | 0.0046 µM |
| Cn1cc(/C=C2\Oc3cc(O)cc(O)c3C2=O)c2c(C3=CCNCC3)ccnc21 [Compound 78, (2Z)-4,6-dihydroxy-2-{[1-methyl-4-(1,2,3,6-tetrahydropyridin-4-yl)-1H-pyrrolo[2,3-b]pyridin-3-yl]methylene}-1-benzofuran-3(2H)-one] | 0.031 µM | 0.315 µM | 0.005 µM |
